From patent US6642392B1 (priority 1997, dated 2003)
Read-outs that look alike come from different tables or passages of the source.

Key:
Assay type in all cases: in vivo
Pyricularia oryzae = settings: rice blast
Puccinia recondita = assay: Test B: wheat leaf rust, preventive spray on wheat seedlings; settings: wheat leaf rust
Description: (§1) The resulting test suspensions were then used in the following tests. […]
(§2) The test suspension was sprayed to the point of run-off on wheat seedlings. The following day the seedlings were inoculated with a spore suspension of Puccinia recondita (the causal agent of wheat leaf rust) and incubated in a saturated atmosphere at 20° C. for 24 h, and then moved to a growth chamber at 20° C. for 6 days, after which disease ratings were made.
(§3) Results for Tests A-E are given in Table A. In the table, a rating of 100 indicates 100% disease control and a rating of 0 indicates no disease control (relative to the controls). A dash (-) indicates no test results. ND indicates disease control not determined due to phytotoxicity.

Botrytis cinerea = assay: Test E: gray mold, preventive spray on cucumber seedlings; settings: gray mold on cucumber
Description: The resulting test suspensions were then used in the following tests. Spraying these 200 ppm test suspensions to the point of run-off on the test plants is the equivalent of a rate of 500 g/ha.
as §2, with “cucumber” for “wheat”, “Botrytis cinerea” for “Puccinia recondita”, “gray mold on many crops)” for “wheat leaf rust)”, “48” for “24”, “and” for “and then”, “5” for “6”
as §3

[1] = system: Eiysiphe graminis f. sp. tritici; assay: Test A: wheat powdery mildew, preventive spray on wheat seedlings; settings: wheat powdery mildew
Description: as §1
The test suspension was sprayed to the point of run-off on wheat seedlings. The following day the seedlings were inoculated with a spore dust of Eiysiphe graminis f. sp. tritici, (the causal agent of wheat powdery mildew) and incubated in a growth chamber at 20° C. for 7 days, after which disease ratings were made.
as §3

Phytophthora infestans = settings: tomato late blight
[2] = 100 = 100% disease control, 0 = no control, unmarked entries (standard test concentration)
[3] = 100 = 100% disease control, 0 = no control relative to controls, unmarked entries (standard test concentration)

CCC1(C(=O)NC(C)COc2ccc(Cl)cc2)C(C)C1(Cl)Cl (mixture of isomers) [83b]
Test C disease control rating (Pyricularia oryzae; tested at 40 ppm): 53%
Test B disease control rating (Puccinia recondita; tested at 40 ppm): 0%
Test E disease control rating (Botrytis cinerea; tested at 40 ppm): 0%
Test A disease control rating ([1]; tested at 40 ppm): 52%
Test D disease control rating (Phytophthora infestans; tested at 40 ppm): 0%

CCC1(C(=O)NC(C)COc2ccccc2Br)C(C)C1(Cl)Cl (mixture of isomers) [84a]
Test C disease control rating (Pyricularia oryzae; tested at 40 ppm): 0%
Test B disease control rating (Puccinia recondita; tested at 40 ppm): 0%
Test E disease control rating (Botrytis cinerea; tested at 40 ppm): 0%
Test A disease control rating ([1]; tested at 40 ppm): 29%
Test D disease control rating (Phytophthora infestans; tested at 40 ppm): 20%

CCC1(C(=O)NC(C)COc2ccccc2Br)C(C)C1(Cl)Cl (mixture of isomers) [84b]
Test C disease control rating (Pyricularia oryzae; tested at 40 ppm): 73%
Test B disease control rating (Puccinia recondita; tested at 40 ppm): 28%
Test E disease control rating (Botrytis cinerea; tested at 40 ppm): 0%
Test A disease control rating ([1]; tested at 40 ppm): 57%
Test D disease control rating (Phytophthora infestans; tested at 40 ppm): 75%

CCC1(C(=O)NC(C)COc2cccc(Br)c2)C(C)C1(Cl)Cl (mixture of isomers) [85b]
Test C disease control rating (Pyricularia oryzae; tested at 40 ppm): 53%
Test B disease control rating (Puccinia recondita; tested at 40 ppm): 0%
Test E disease control rating (Botrytis cinerea; tested at 40 ppm): 0%
Test A disease control rating ([1]; tested at 40 ppm): 0%
Test D disease control rating (Phytophthora infestans; tested at 40 ppm): 0%

CCC1(C(=O)NC(C)COc2ccc(Br)cc2)C(C)C1(Cl)Cl (mixture of isomers) [86a]
Test C disease control rating (Pyricularia oryzae; tested at 40 ppm): 0%
Test B disease control rating (Puccinia recondita; tested at 40 ppm): 67%
Test E disease control rating (Botrytis cinerea; tested at 40 ppm): 0%
Test A disease control rating ([1]; tested at 40 ppm): 0%
Test D disease control rating (Phytophthora infestans; tested at 40 ppm): 0%

CCC1(C(=O)NC(C)COc2ccc(Br)cc2)C(C)C1(Cl)Cl (mixture of isomers) [86b]
Test C disease control rating (Pyricularia oryzae; tested at 40 ppm): 0%
Test B disease control rating (Puccinia recondita; tested at 40 ppm): 0%
Test E disease control rating (Botrytis cinerea; tested at 40 ppm): 0%
Test A disease control rating ([1]; tested at 40 ppm): 52%
Test D disease control rating (Phytophthora infestans; tested at 40 ppm): 28%

CCC1(C(=O)NC(C)COc2ccccc2I)C(C)C1(Cl)Cl (mixture of isomers) [87a]
Test C disease control rating (Pyricularia oryzae; tested at 40 ppm): 74%
Test B disease control rating (Puccinia recondita; tested at 40 ppm): 0%
Test E disease control rating (Botrytis cinerea; tested at 40 ppm): 0%
Test A disease control rating ([1]; tested at 40 ppm): 0%
Test D disease control rating (Phytophthora infestans; tested at 40 ppm): 0%

CCC1(C(=O)NC(C)COc2ccccc2I)C(C)C1(Cl)Cl (mixture of isomers) [87b]
Test C disease control rating (Pyricularia oryzae; tested at 40 ppm): 0%
Test B disease control rating (Puccinia recondita; tested at 40 ppm): 0%
Test E disease control rating (Botrytis cinerea; tested at 40 ppm): 0%
Test A disease control rating ([1]; tested at 40 ppm): 52%
Test D disease control rating (Phytophthora infestans; tested at 40 ppm): 0%

CCC1(C(=O)NC(C)COc2ccccc2C#N)C(C)C1(Cl)Cl (mixture of isomers) [89a]
Test C disease control rating (Pyricularia oryzae; [2]): 74%
Test B disease control rating (Puccinia recondita; [2]): 0%
Test E disease control rating (Botrytis cinerea; [2]): 0%
Test A disease control rating [1, 3]: 0%
Test D disease control rating (Phytophthora infestans; [2]): 20%

CCC1(C(=O)NC(C)COc2ccccc2C(F)(F)F)C(C)C1(Cl)Cl (mixture of isomers) [94a]
Test C disease control rating (Pyricularia oryzae; [2]): 0%
Test B disease control rating (Puccinia recondita; [2]): 0%
Test E disease control rating (Botrytis cinerea; [2]): 0%
Test A disease control rating [1, 3]: 0%
Test D disease control rating (Phytophthora infestans; [2]): 0%

CCC1(C(=O)NC(C)COc2ccccc2C(F)(F)F)C(C)C1(Cl)Cl (mixture of isomers) [94b]
Test C disease control rating (Pyricularia oryzae; tested at 40 ppm): 0%
Test B disease control rating (Puccinia recondita; tested at 40 ppm): 0%
Test E disease control rating (Botrytis cinerea; tested at 40 ppm): 0%
Test A disease control rating ([1]; tested at 40 ppm): 71%
Test D disease control rating (Phytophthora infestans; tested at 40 ppm): 0%

CCc1ccccc1OCC(C)NC(=O)C1(CC)C(C)C1(Cl)Cl (mixture of isomers) [97a]
Test C disease control rating (Pyricularia oryzae; tested at 40 ppm): 0%
Test B disease control rating (Puccinia recondita; tested at 40 ppm): 0%
Test E disease control rating (Botrytis cinerea; tested at 40 ppm): 0%
Test A disease control rating ([1]; tested at 40 ppm): 0%
Test D disease control rating (Phytophthora infestans; tested at 40 ppm): 20%

CCCc1ccccc1OCC(C)NC(=O)C1(CC)C(C)C1(Cl)Cl (mixture of isomers) [98a]
Test C disease control rating (Pyricularia oryzae; [2]): 53%
Test B disease control rating (Puccinia recondita; [2]): 0%
Test E disease control rating (Botrytis cinerea; [2]): 0%
Test A disease control rating [1, 3]: 0%
Test D disease control rating (Phytophthora infestans; [2]): 24%

C=CCc1ccccc1OCC(C)NC(=O)C1(CC)C(C)C1(Cl)Cl (mixture of isomers) [101a]
Test C disease control rating (Pyricularia oryzae; [2]): 0%
Test B disease control rating (Puccinia recondita; [2]): 0%
Test E disease control rating (Botrytis cinerea; [2]): 22%
Test A disease control rating [1, 3]: 0%
Test D disease control rating (Phytophthora infestans; [2]): 46%

CCC1(C(=O)NC(C)COc2c(F)cccc2F)C(C)C1(Cl)Cl (mixture of isomers) [105a]
Test C disease control rating (Pyricularia oryzae; [2]): 53%
Test B disease control rating (Puccinia recondita; [2]): 0%
Test E disease control rating (Botrytis cinerea; [2]): 55%
Test A disease control rating [1, 3]: 0%
Test D disease control rating (Phytophthora infestans; [2]): 0%

CCC1(C(=O)NC(C)COn2c(C#N)cc(Cl)c2C)C(C)C1(Cl)Cl (mixture of isomers) [140a]
Test C disease control rating (Pyricularia oryzae; [2]): 90%
Test B disease control rating (Puccinia recondita; [2]): 0%
Test E disease control rating (Botrytis cinerea; [2]): 0%
Test A disease control rating [1, 3]: 29%
Test D disease control rating (Phytophthora infestans; [2]): 0%

CCC1(C(=O)NC(C)COn2c(C#N)cc(Cl)c2C)C(C)C1(Cl)Cl (mixture of isomers) [140b]
Test C disease control rating (Pyricularia oryzae; [2]): 74%
Test B disease control rating (Puccinia recondita; [2]): 28%
Test E disease control rating (Botrytis cinerea; [2]): 0%
Test A disease control rating [1, 3]: 63%
Test D disease control rating (Phytophthora infestans; [2]): 38%

CC(COc1cc(F)ccc1Cl)NC(=O)C(C#N)C(C)(C)C (mixture of isomers) [191c]
Test C disease control rating (Pyricularia oryzae; [2]): 100%
Test B disease control rating (Puccinia recondita; [2]): 0%
Test E disease control rating (Botrytis cinerea; [2]): 0%
Test A disease control rating [1, 3]: 86%
Test D disease control rating (Phytophthora infestans; [2]): 23%

CC(COc1ccccc1CC#N)NC(=O)C(C#N)C(C)(C)C (mixture of isomers) [compound 16]
Test C disease control rating (Pyricularia oryzae; [2]): 97%
Test B disease control rating (Puccinia recondita; [2]): 0%
Test E disease control rating (Botrytis cinerea; [2]): 0%
Test A disease control rating [1, 3]: 0%
Test D disease control rating (Phytophthora infestans; [2]): 48%

Cc1ccccc1OCC(C)NC(=O)C(C#N)C(C)(C)C (mixture of isomers) [compound 19]
Test C disease control rating (Pyricularia oryzae; [2]): 97%
Test B disease control rating (Puccinia recondita; [2]): 0%
Test E disease control rating (Botrytis cinerea; [2]): 0%
Test A disease control rating [1, 3]: 0%
Test D disease control rating (Phytophthora infestans; [2]): 0%

CC(COc1ccccc1C(C)C)NC(=O)C(C#N)C(C)(C)C (mixture of isomers) [compound 22]
Test C disease control rating (Pyricularia oryzae; [2]): 100%
Test B disease control rating (Puccinia recondita; [2]): 0%
Test E disease control rating (Botrytis cinerea; [2]): 0%
Test A disease control rating [1, 3]: 0%
Test D disease control rating (Phytophthora infestans; [2]): 0%

CC(COc1ccccc1C(C)(C)C)NC(=O)C(C#N)C(C)(C)C (mixture of isomers) [compound 23]
Test C disease control rating (Pyricularia oryzae; [2]): 97%
Test B disease control rating (Puccinia recondita; [2]): 0%
Test E disease control rating (Botrytis cinerea; [2]): 0%
Test A disease control rating [1, 3]: 0%
Test D disease control rating (Phytophthora infestans; [2]): 48%

CC(COc1ccc(C(C)(C)C)cc1)NC(=O)C(C#N)C(C)(C)C (mixture of isomers) [compound 24]
Test C disease control rating (Pyricularia oryzae; [2]): 53%
Test B disease control rating (Puccinia recondita; [2]): 0%
Test E disease control rating (Botrytis cinerea; [2]): 94%
Test A disease control rating [1, 3]: 62%
Test D disease control rating (Phytophthora infestans; [2]): 66%

CC(COc1c(Cl)cccc1Cl)NC(=O)C(C#N)C(C)(C)C (mixture of isomers) [compound 34]
Test C disease control rating (Pyricularia oryzae; [2]): 91%
Test B disease control rating (Puccinia recondita; [2]): 85%
Test E disease control rating (Botrytis cinerea; [2]): 0%
Test A disease control rating [1, 3]: 62%
Test D disease control rating (Phytophthora infestans; [2]): 0%

CC(COc1ccc(Br)cc1F)NC(=O)C(C#N)C(C)(C)C (mixture of isomers) [compound 38]
Test C disease control rating (Pyricularia oryzae; [2]): 53%
Test B disease control rating (Puccinia recondita; [2]): 28%
Test E disease control rating (Botrytis cinerea; [2]): 22%
Test A disease control rating [1, 3]: 0%
Test D disease control rating (Phytophthora infestans; [2]): 0%

CC(COc1cccc(F)c1C#N)NC(=O)C(C#N)C(C)(C)C (mixture of isomers) [compound 39]
Test C disease control rating (Pyricularia oryzae; [2]): 86%
Test B disease control rating (Puccinia recondita; [2]): 0%
Test E disease control rating (Botrytis cinerea; [2]): 0%
Test A disease control rating [1, 3]: 0%
Test D disease control rating (Phytophthora infestans; [2]): 2%

CC(COc1ccc(F)cc1C#N)NC(=O)C(C#N)C(C)(C)C (mixture of isomers) [compound 40]
Test C disease control rating (Pyricularia oryzae; [2]): 86%
Test B disease control rating (Puccinia recondita; [2]): 0%
Test E disease control rating (Botrytis cinerea; [2]): 0%
Test A disease control rating [1, 3]: 21%
Test D disease control rating (Phytophthora infestans; [2]): 0%

CC(COc1cc(F)ccc1C#N)NC(=O)C(C#N)C(C)(C)C (mixture of isomers) [compound 41]
Test C disease control rating (Pyricularia oryzae; [2]): 97%
Test B disease control rating (Puccinia recondita; [2]): 0%
Test E disease control rating (Botrytis cinerea; [2]): 47%
Test A disease control rating [1, 3]: 62%
Test D disease control rating (Phytophthora infestans; [2]): 66%

CC(COc1cccc(Cl)c1C#N)NC(=O)C(C#N)C(C)(C)C (mixture of isomers) [compound 42]
Test C disease control rating (Pyricularia oryzae; [2]): 53%
Test B disease control rating (Puccinia recondita; [2]): 0%
Test E disease control rating (Botrytis cinerea; [2]): 0%
Test A disease control rating [1, 3]: 0%
Test D disease control rating (Phytophthora infestans; [2]): 2%
